Test results published in patent US9303009B2, “Migrastatins and uses thereof” (Sloan-Kettering Institute for Cancer Research, priority 2011, dated 2016).
Like-named read-outs stand apart in the source and are kept apart here.

What was measured:
AC3-TGL cells = experiment: human primary SCLC xenograft model, Example 15; type: in vivo
Description: This Example studied whether the ME analog affects tumor metastasis in a human small cell lung cancer (SCLC) primary xenograft model. These cells in primary and subsequent in vivo passages in NOD-SCID mice formed liver metastases. The tumor cells were stably transduced with a triple-fusion protein reporter construct (AC3-TGL), and were transplanted by subcutaneous injection with matrigel into NOD/SCID IL2R gamma null (NSG) mice. Started 1 day prior the inoculation of tumor cells, ME treatment was initiated by intraperitoneal injection at 40 mg/kg (ME40) or 200 mg/kg (ME200) three times a week in groups of 5 mice. Control mice were treated with DMSO vehicle. Tumor burden and metastatic spread were monitored every 5 days by serial non-invasive bioluminescent imaging. […] At the endpoint, the potential metastatic sites (liver, lung, spleen, heart and kidney, gastrointestinal tract) were surgically resected and the luciferase activity quantified by ex-vivo bioluminescence imaging (FIG. 5b).
For the results depicted in FIGS. 5a-c, AC3-TGL cells were transplanted by subcutaneous ventral injection into NSG mice. Xenografted mice were treated with indicated dosages of ME every 3 days started from day −1 after tumor inoculation: 40 mg/kg (ME40, n=5), 200 mg/kg (ME200, n=5)) and DMSO vehicle (Control, n=5). At day 45, the mice were sacrificed. Three mice in the ME200 group died before the end of treatment, at day 23, 30 and 34. (A) Tumor growth. Every 5 days, the tumor burden was monitored by in vivo Bioluminescence Imaging (BI) and data is expressed as photon flux (flux in photon/sec)+/−SEM in log scale. (B, C) Tumor metastasis at endpoint. At day 45, mice were analyzed for metastasis by ex vivo BI quantifying luciferase activity in the excised lungs (Lu), liver (Li), heart (H), kidneys (K) and the spleen (S). Measurements for each mouse are presented on the panel B (circles), with the average per group (short line) and expressed as photon flux (flux in photon/sec) in log scale. P-values were obtained using two-tailed Mann-Whitney U-test. Pictures of bioluminescence signal measured on the organs from 1 mouse of each group are presented on the panel C. Each picture is presented with the same settings (4 min exposure; photon signal; color scale from 5.E6 (min) to 1.E8 (max)).
Xenograft Model for Example 15: A human primary SCLC xenograft model was developed in 10-14 weeks old male non-obese diabetic severe combined immunodeficient (NOD/SCID) Interleukin-2 gamma Chain Receptor Null Mice (NSG). Primary tumor samples were obtained after patient informed consent. AC3-TGL primary cells growing as clumps were processed into a single-cell suspension by Trypsin/Collagenase IV (Invitrogen) sequential treatment and filtrated as described above. Xenografts were performed by subcutaneous ventral injection of 10^3 AC3-TGL cells in serum-free medium mixed with Matrigel (Becton Dickinson). One day prior to the tumor cell injection, mice were pretreated with Migrastatin Ether (ME) compounds at a dose of either 40 mg/kg or 200 mg/kg per mouse or with DMSO vehicle control (n≧5 mice per group). […] During this time, the tumor burden and metastatic spread were monitored by bioluminescence imaging (BLI) every 5 days. At day 45 (endpoint), the mice were killed and the metastatic spread of tumor cells to the lungs, liver, heart, kidneys, spleen and GI tract was assessed by ex-vivo BLI on the removed organs.

water solubility = type: physicochemical; details: water with 5% methanol, aqueous with cosolvent or surfactant or cyclodextrin; in the presence of 5% methanol
MDA231BrM2a cells = experiment: ex-vivo intra-brain migration assay on brain slices; type: cell-based, human; details: 1 μM or 10 μM; 3 days
Description: After extravasation through the BBB, cancer cells adhere to and migrate on the surface of brain capillaries. Prior to the present disclosure, the permeability of the BBB to cME was unknown. To investigate the ability of cME to inhibit cancer cell migration over capillaries once the cells have infiltrated the brain, we used an ex-vivo intra-brain migration assay. Brain slices from untreated mice were placed in organotypic cultures. Each slice was placed on an inertporous membrane over cell culture medium. MDA231BrM2a cells (3×10^4 cells) were plated on top of the brain slices (FIG. 2, top). After 3 days, the cancer cells had infiltrated the brain tissue mass, migrated towards capillaries (Col. IV in FIG. 2) and migrated on the capillary network of the tissue slice (FIG. 2, bottom). […] In the presence of cME, the cancer cells remained round and on the surface of the brain slice, without migrating towards and over the vascular network (FIG. 2, bottom right).

[1] = test system: MDA231-LM2 lung metastatic breast cancer cells; experiment: trans-well cell migration assay, 3 μm pore Boyden chamber; type: cell-based; details: 24 h pre-treatment, 5 h migration
Protocol: MDA231-LM2 lung metastatic breast cancer cells were pre-treated with the indicated concentrations of ME or Carboxymethyl-ME for 24 hours. Following the pre-treatment, migration was determined using a Boyden chamber with 3 μm pore size filters. Cells were allowed to migrate for 5 hours through the chamber (in the presence of ME or Carboxymethyl-ME). Cells that traversed the porous membranes were analyzed and scored under a fluorescence microscope. […] The results are expressed as transmigrated cells per optical field. Data are averages of triplicates ±S.D. (See FIG. 6)

[2] = mouse pharmacokinetics, plasma HPLC-MS/MS; type: in vivo, mice (B6D2F1); details: for AUC(0-t): 20 mg/kg in 2% GDM-12, read-out: AUC0-24 hr; for half-life: 20 mg/kg in 2% GDM-12, read-out: Half-life (t1/2) (converted)
Protocol: Groups of mix gender mice (B6D2F1) were used. Pharmacokinetics (PK) were performed on heparinized mouse plasma samples obtained typically at 0 hr, 0.17 hr, 0.5 hr, 0.75 hr, 1 hr, 2 hr, 4 hr, 8 hr, 16 hr and 24 hr after the bolus intravenous or intraperitoneal injections for CME. Samples were analyzed using a HPLC-MS/MS method. To determine the level of CME, the drug was first isolated from plasma with a sample pre-treatment. Acetonitrile were used to remove proteins in samples. An isocratic HPLC-MS/MS method was then used to separate the drugs from any potential interference. Compound levels were measured by MS detection with a multiple reaction monitoring (MRM) mode. PK data was analyzed using the WinNonlin program (ver. 5.3, Pharsight) compartmental model of analysis.
The hashed line is (A: ip) and the solid line is (B:iv) The drug was administered intravenously or intraperitoneally and the dosing strength was 20 mg/kg.

[3] = both sexes, B6D2F1, plasma, ip, 20 mg/kg in 2% GDM-12
[4] = both sexes, B6D2F1, plasma, iv, 20 mg/kg in 2% GDM-12

Row | Compound | decrease of overall metastasis (AC3-TGL cells; 40 mg/kg i.p. every 3 days, day 45, vs control) [%] | mice died before the endpoint (AC3-TGL cells; 200 mg/kg group of 5) [mice] | metastasis inhibition (AC3-TGL cells; 200 mg/kg i.p. every 3 days, day 45, 2 surviving mice) [%] | side effects in surviving mice (AC3-TGL cells; 200 mg/kg, 2 surviving mice, after 45 days of treatment) | tumor growth kinetics at the primary site of injection (AC3-TGL cells; 40 or 200 mg/kg i.p.) | solubility (water solubility) [µg/mL] | migration of cancer cells towards and over the capillary network of the brain slice (MDA231BrM2a cells) | potency relative to ME at inhibiting migration [1] | AUC(0-inf) [2, 3] [ng·h/mL] | Cmax [2, 3] [ng/mL] | bioavailability [2, 3] [%] | AUC(0-t) ([2]; both sexes, B6D2F1, plasma, ip) [ng·h/mL] | half-life ([2]; both sexes, B6D2F1, plasma, ip) [h] | AUC(0-inf) [2, 4] [ng·h/mL] | Cmax [2, 4] [ng/mL] | clearance [2, 4] [mL/min/kg] | AUC(0-t) ([2]; both sexes, B6D2F1, plasma, iv) [ng·h/mL] | half-life ([2]; both sexes, B6D2F1, plasma, iv) [h] | CL ([2]; ip, 20 mg/kg in 2% GDM-12) [mL/min/kg]
1 | CO[C@H]1/C=C/CCCCCOC/C(C)=C\[C@@H](C)[C@@H]1O [ME, migrastatin ether] | 93 | 3 | 99 | no body-weight loss, lethargy or other obvious side effects | did not significantly interfere | – | – | – | – | – | – | – | – | – | – | – | – | – | –
2 | CO[C@H]1/C=C/CCCCCOC/C(C)=C\[C@@H](C)[C@@H]1OCC(=O)O [CME, Carboxymethyl migraether] | – | – | – | – | – | 200 to 300 | strongly inhibited | approximately 20 fold | 27900 | 369 | 77.8 | 27800 | 2.4 | 36000 | 1540 | 9.25 | 35700 | 2.9 | 11.96
